According to patent US8623856B2, “Phenoxy-azetidine derivatives as sphingosine 1-phosphate (S1P) receptor modulators” (Allergan, Inc., priority 2012, dated 2014):

The compounds below were run against T1, human S1P1 receptor (Homo sapiens, UniProt P21453) (assay: GTP γ35S binding assay for S1P1 activity). Conditions: membranes of cells stably expressing the S1P1 receptor, agonist activity potency.
T1 construct: expressed in transfected cells; host or cells: unnamed cell line stably expressing the S1P1 receptor; membranes were used
Type: biochemical
Protocol: Compounds were synthesized and tested for S1P1 activity using the GTP γ^35S binding assay. These compounds may be assessed for their ability to activate or block activation of the human S1P1 receptor in cells stably expressing the S1P1 receptor. GTP γ^35S binding was measured in the medium containing (mM) HEPES 25, pH 7.4, MgCl2 10, NaCl 100, dithitothreitol 0.5, digitonin 0.003%, 0.2 nM GTP γ^35S, and 5 μg membrane protein in a volume of 150 μl. Test compounds were included in the concentration range from 0.08 to 5,000 nM unless indicated otherwise. Membranes were incubated with 100 μM 5′-adenylylimmidodiphosphate for 30 min, and subsequently with 10 μM GDP for 10 min on ice. Drug solutions and membrane were mixed, and then reactions were initiated by adding GTP γ^35S and continued for 30 min at 25° C. Reaction mixtures were filtered over Whatman GF/B filters under vacuum, and washed three times with 3 mL of ice-cold buffer (HEPES 25, pH7.4, MgCl2 10 and NaCl 100). Filters were dried and mixed with scintillant, and counted for ^35S activity using a β-counter. Agonist-induced GTP γ^35S binding was obtained by subtracting that in the absence of agonist. Binding data were analyzed using a non-linear regression method. In case of antagonist assay, the reaction mixture contained 10 nM S1P in the presence of test antagonist at concentrations ranging from 0.08 to 5000 nM.

T1 sequence (P21453 whole entry): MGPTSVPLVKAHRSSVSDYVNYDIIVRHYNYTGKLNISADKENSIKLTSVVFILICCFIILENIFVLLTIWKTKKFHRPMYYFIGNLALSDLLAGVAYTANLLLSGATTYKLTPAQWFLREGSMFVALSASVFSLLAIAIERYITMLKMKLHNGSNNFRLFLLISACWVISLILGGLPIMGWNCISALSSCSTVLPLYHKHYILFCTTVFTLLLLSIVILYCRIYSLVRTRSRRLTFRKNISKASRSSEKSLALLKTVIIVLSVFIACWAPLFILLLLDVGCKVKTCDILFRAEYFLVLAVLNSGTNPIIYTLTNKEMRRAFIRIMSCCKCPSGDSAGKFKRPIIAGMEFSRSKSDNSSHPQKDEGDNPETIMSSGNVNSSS

| SMILES | EC50 |
| --- | --- |
| Cc1ccc(CC(CCCOc2ccc(CN3CC(C(=O)O)C3)cc2)c2cccc(F)c2F)cc1C (stereo not shown) [1-(4-{([4-(2,3-difluorophenyl)-5-(3,4-dimethylphenyl)pentyl]oxy}benzyl)azetidine-3-carboxylic acid] | 1.37 nM |
| Cc1ccc(CC(CCCOc2ccc(CN3CC(C(=O)O)C3)cc2)c2cc(F)cc(F)c2)cc1C (stereo not shown) [1-(4-{[4-(3,5-difluorophenyl)-5-(3,4-dimethylphenyl)pentyl]oxy}benzyl)azetidine-3-carboxylic acid] | 1.4 nM |
| Cc1ccc(CC(CCCOc2ccc(CN3CC(C(=O)O)C3)cc2)c2ccsc2)cc1C (stereo not shown) [1-(4-{[5-(3,4-dimethylphenyl)-4-(3-thienyl)pentyl]oxy}benzyl)azetidine-3-carboxylic acid] | 5.7 nM |
| Cc1ccc(CC(CCOc2ccc(CN3CC(C(=O)O)C3)cc2)c2cccc(Cl)c2)cc1C (stereo not shown) [1-{4-[3-(3-chlorophenyl)-4-(3,4-dimethylphenyl)butoxy]benzyl}azetidine-3-carboxylic acid] | 50.2 nM |
